The nature of the data set: cytotoxicity in vitro (general statement). Type of data set: cell-based.

Here are results for one molecule from patent US4618692A, “4-carbamoyloxy-oxazaphosphorins” (Asta-Werke Aktiengesellschaft, priority 1984, dated 1986).

As to `O=P1(N(CCCl)CCCl)NCCCO1` (stereo not shown) [cyclophosphamide, 2-[bis-(2-chloroethyl)-amino]-2-oxo-tetrahydro-2H-1,3,2-oxazaphosphorin], the cytotoxicity in vitro result is listed as “practically no cytotoxic effect in vitro”.
